# pEC50: −log10 of the molar value.
# Key:
# Rattus norvegicus [1] = species on record: Rattus norvegicus; assay: Percent intrinsic activity was measured in rat aorta; type: functional
# Rattus norvegicus [2] = species on record: Rattus norvegicus; assay: Negative logarithm of the molar concentration of compound required to relax rat aorta precontracted with 30 mM KCl by 50%; type: functional
SMILES,pEC50 (Rattus norvegicus [2]),IA (Rattus norvegicus [1]) [%]
CC1(C)Oc2ccc(C#N)cc2[C@@H](N2CCCC2=O)[C@@H]1O [CROMAKALIM],–,74.7
CC(N/C(=N\C#N)Nc1ccncc1)C(C)(C)C (stereo not given) [PINACIDIL ANHYDROUS],6.14,91.9
C/N=C(/S)C1=CC(C)(C)Oc2ccc(C#N)cc21,–,89

# Second part, led by results:
pEC50 (Rattus norvegicus [2]),SMILES,IA (Rattus norvegicus [1]) [%]
7.04,CC(C)(C)/N=C(/NC#N)Nc1cccnc1,88
6.58,CNC(=O)C1=CC(C)(C)Oc2ccc(C#N)cc21,66.6
6.47,C/N=C(/NC#N)C1=CC(C)(C)Oc2ccc(C#N)cc21,73

# From ChEMBL document CHEMBL1127213, “Design of potent K+ channel openers by pharmacophore model” (Bioorg Med Chem Lett, 1993)
